Experimental data: ChEMBL document CHEMBL4024706 (Eur J Med Chem, 2017)

Columns and labels:
[1] = molecular target: Mitogen-activated protein kinase kinase kinase 14 (Homo sapiens) (UniProt Q99558); assay: Inhibition of wild-type human partial length NIK (L318 to P947 residues) expressed in mammalian expression system assessed as residual activity at 1 uM by Kinomescan method relative to control
[2] = tested on: ALK tyrosine kinase receptor (Homo sapiens), Q9UM73 [C1156Y]; assay: Inhibition of […] human partial length ALK C1156Y mutant (I1088 to E1409 residues) expressed in mammalian expression system assessed as residual activity at 1 uM by Kinomescan method relative to control
[3] = molecular target: Dual specificity tyrosine-phosphorylation-regulated kinase 2 (Homo sapiens) (UniProt Q92630); assay: Inhibition of wild-type human full length DYRK2 (M1 to S528 residues) expressed in mammalian expression system assessed as residual activity at 1 uM by Kinomescan method relative to control
[4] = molecular target: Tyrosine-protein kinase ABL1 (Homo sapiens) (UniProt P00519); assay: Inhibition of wild-type human non-phosphorylated ABL1 (S229 to K512 residues) expressed in mammalian expression system assessed as residual activity at 1 uM by Kinomescan method relative to control
[5] = molecular target: Leukocyte tyrosine kinase receptor (Homo sapiens) (UniProt P29376); assay: Inhibition of wild-type human partial length LTK (P422 to S744 residues) expressed in bacterial expression system assessed as residual activity at 1 uM by Kinomescan method relative to control
[6] = Cmax in Sprague-Dawley rat at 10 mg/kg, po by LC-MS/MS method; type: ADME, organism-based; design: dose 10 mg/kg, route oral; details: in vivo
[7] = tested on: Tyrosine-protein kinase ABL1 (Homo sapiens), P00519 [T315I]; assay: Inhibition of human phosphorylated ABL1 T315I mutant (S229 to K512 residues) expressed in mammalian expression system assessed as residual activity at 1 uM by Kinomescan method relative to control
[8] = AUC (0 to infinity) in Sprague-Dawley rat at 1 mg/kg, iv by LC-MS/MS method; type: ADME, organism-based; design: dose 1 mg/kg, route intravenous, time infinity; details: in vivo
[9] = molecular target: Serine/threonine-protein kinase 10 (Homo sapiens) (UniProt O94804); assay: Inhibition of wild-type human partial length LOK (E16 to V314 residues) expressed in bacterial expression system assessed as residual activity at 1 uM by Kinomescan method relative to control
[10] = tested on: Tyrosine-protein kinase ABL1 (Homo sapiens), P00519 [E255K]; assay: Inhibition of human phosphorylated ABL1 E255K mutant (S229 to K512 residues) expressed in mammalian expression system assessed as residual activity at 1 uM by Kinomescan method relative to control
[11] = molecular target: Serine/threonine-protein kinase 32B (Homo sapiens) (UniProt Q9NY57); assay: Inhibition of wild-type human full length YANK2 (M1 to S414 residues) expressed in bacterial expression system assessed as residual activity at 1 uM by Kinomescan method relative to control
[12] = molecular target: Protein kinase C theta type (Homo sapiens) (UniProt Q04759); assay: Inhibition of wild-type human partial length PRKCQ (L350 to S706 residues) expressed in bacterial expression system assessed as residual activity at 1 uM by Kinomescan method relative to control
[13] = molecular target: Serine/threonine-protein kinase WNK3 (Homo sapiens) (UniProt Q9BYP7); assay: Inhibition of wild-type human partial length WNK3 (M1 to D434 residues) expressed in mammalian expression system assessed as residual activity at 1 uM by Kinomescan method relative to control
[14] = molecular target: G protein-coupled receptor kinase 4 (Homo sapiens) (UniProt P32298); assay: Inhibition of wild-type human full length GRK4 (M1 to C578 residues) expressed in bacterial expression system assessed as residual activity at 1 uM by Kinomescan method relative to control
[15] = molecular target: Inhibitor of nuclear factor kappa-B kinase subunit alpha (Homo sapiens) (UniProt O15111); assay: Inhibition of wild-type human full length IKK-alpha (M1 to E745 residues) expressed in mammalian expression system assessed as residual activity at 1 uM by Kinomescan method relative to control
[16] = molecular target: Cyclin-dependent kinase-like 3 (Homo sapiens) (UniProt Q8IVW4); assay: Inhibition of wild-type human partial length CDKL3 (M1 to D327 residues) expressed in bacterial expression system assessed as residual activity at 1 uM by Kinomescan method relative to control
[17] = molecular target: Mitogen-activated protein kinase 10 (Homo sapiens) (UniProt P53779); assay: Inhibition of wild-type human partial length JNK3 (V28 to Q422 residues) expressed in mammalian expression system assessed as residual activity at 1 uM by Kinomescan method relative to control
[18] = molecular target: Interleukin-1 receptor-associated kinase 3 (Homo sapiens) (UniProt Q9Y616); assay: Inhibition of wild-type human partial length IRAK3 (V147 to E596 residues) expressed in bacterial expression system assessed as residual activity at 1 uM by Kinomescan method relative to control
[19] = molecular target: Cyclin-dependent kinase-like 2 (Homo sapiens) (UniProt Q92772); assay: Inhibition of wild-type human partial length CDKL2 (M1 to D327 residues) expressed in bacterial expression system assessed as residual activity at 1 uM by Kinomescan method relative to control
[20] = molecular target: Serine/threonine-protein kinase Nek3 (Homo sapiens) (UniProt P51956); assay: Inhibition of wild-type human full length NEK3 (M1 to R506 residues) expressed in mammalian expression system assessed as residual activity at 1 uM by Kinomescan method relative to control
[21] = molecular target: Tyrosine-protein kinase Srms (Homo sapiens) (UniProt Q9H3Y6); assay: Inhibition of wild-type human partial length SRMS (L208 to P488 residues) expressed in mammalian expression system assessed as residual activity at 1 uM by Kinomescan method relative to control
[22] = molecular target: Insulin receptor (Homo sapiens) (UniProt P06213); assay: Inhibition of wild-type human partial length INSR (P997 to E1318 residues) expressed in mammalian expression system assessed as residual activity at 1 uM by Kinomescan method relative to control
[23] = molecular target: Ephrin type-B receptor 1 (Homo sapiens) (UniProt P54762); assay: Inhibition of wild-type human partial length EPHB1 (P589 to T911 residues) expressed in bacterial expression system assessed as residual activity at 1 uM by Kinomescan method relative to control
[24] = molecular target: Serine/threonine-protein kinase 26 (Homo sapiens) (UniProt Q9P289); assay: Inhibition of wild-type human full length MST4 (M1 to P416 residues) expressed in mammalian expression system assessed as residual activity at 1 uM by Kinomescan method relative to control
[25] = molecular target: Bone morphogenetic protein receptor type-1A (Homo sapiens) (UniProt P36894); assay: Inhibition of wild-type human partial length BMPR1A (Q214 to I532 residues) expressed in bacterial expression system assessed as residual activity at 1 uM by Kinomescan method relative to control
[26] = molecular target: Insulin receptor-related protein (Homo sapiens) (UniProt P14616); assay: Inhibition of wild-type human partial length INSRR (R950 to E1278 residues) expressed in bacterial expression system assessed as residual activity at 1 uM by Kinomescan method relative to control

Cyclin-dependent kinase-like 3 (Homo sapiens), sequence (Q8IVW4 whole entry, looked up, the tested form may be a part): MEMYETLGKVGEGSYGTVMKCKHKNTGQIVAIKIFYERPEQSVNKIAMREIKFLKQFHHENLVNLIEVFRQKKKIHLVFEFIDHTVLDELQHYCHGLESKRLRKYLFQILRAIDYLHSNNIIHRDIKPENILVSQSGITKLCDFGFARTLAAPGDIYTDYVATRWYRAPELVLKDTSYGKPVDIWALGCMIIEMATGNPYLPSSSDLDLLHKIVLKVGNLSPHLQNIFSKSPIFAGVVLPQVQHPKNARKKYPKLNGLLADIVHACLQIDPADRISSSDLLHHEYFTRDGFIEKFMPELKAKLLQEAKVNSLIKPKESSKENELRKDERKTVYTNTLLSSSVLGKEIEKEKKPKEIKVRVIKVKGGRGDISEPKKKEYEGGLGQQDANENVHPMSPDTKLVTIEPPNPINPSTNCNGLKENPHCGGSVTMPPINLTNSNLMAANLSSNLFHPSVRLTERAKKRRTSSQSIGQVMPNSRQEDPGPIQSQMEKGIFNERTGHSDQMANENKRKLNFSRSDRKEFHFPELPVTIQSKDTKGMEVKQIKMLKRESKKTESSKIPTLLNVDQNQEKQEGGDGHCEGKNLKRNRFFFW
Tyrosine-protein kinase Srms (Homo sapiens), sequence (Q9H3Y6 whole entry, the tested form may be a part): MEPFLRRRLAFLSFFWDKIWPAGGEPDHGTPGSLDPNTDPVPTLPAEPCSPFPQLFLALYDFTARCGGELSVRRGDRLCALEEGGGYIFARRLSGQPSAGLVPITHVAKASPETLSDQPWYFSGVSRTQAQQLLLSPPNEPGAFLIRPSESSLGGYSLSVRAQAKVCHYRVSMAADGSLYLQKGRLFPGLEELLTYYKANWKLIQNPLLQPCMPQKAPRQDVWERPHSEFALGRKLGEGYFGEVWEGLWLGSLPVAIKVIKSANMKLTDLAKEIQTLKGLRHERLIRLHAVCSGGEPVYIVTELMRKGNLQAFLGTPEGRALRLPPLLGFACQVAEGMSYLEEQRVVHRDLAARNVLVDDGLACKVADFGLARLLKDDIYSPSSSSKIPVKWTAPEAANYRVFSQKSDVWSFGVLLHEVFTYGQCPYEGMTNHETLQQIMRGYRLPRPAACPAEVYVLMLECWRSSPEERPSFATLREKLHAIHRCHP
Insulin receptor (Homo sapiens), sequence (P06213 28-758 limits assumed): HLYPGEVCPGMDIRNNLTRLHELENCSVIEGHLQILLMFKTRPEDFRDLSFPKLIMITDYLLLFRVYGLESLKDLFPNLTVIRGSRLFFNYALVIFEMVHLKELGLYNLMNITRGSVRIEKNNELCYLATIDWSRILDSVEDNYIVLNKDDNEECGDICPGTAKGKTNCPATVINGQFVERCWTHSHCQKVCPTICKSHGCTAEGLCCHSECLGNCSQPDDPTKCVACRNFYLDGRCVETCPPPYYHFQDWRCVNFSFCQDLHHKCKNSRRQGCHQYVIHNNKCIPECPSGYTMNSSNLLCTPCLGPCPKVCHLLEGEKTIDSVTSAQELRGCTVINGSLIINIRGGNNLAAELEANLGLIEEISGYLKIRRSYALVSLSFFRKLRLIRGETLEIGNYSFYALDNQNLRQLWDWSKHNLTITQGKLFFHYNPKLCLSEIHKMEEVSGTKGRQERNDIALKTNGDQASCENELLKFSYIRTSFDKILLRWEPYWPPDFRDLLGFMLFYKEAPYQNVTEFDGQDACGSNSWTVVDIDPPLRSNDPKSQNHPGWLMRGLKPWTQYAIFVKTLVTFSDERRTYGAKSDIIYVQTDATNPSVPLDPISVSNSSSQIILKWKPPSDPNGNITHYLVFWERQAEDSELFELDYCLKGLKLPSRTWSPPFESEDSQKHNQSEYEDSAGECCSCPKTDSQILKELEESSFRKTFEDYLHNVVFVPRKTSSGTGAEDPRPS
Insulin receptor (Homo sapiens), sequence (P06213 763-1382 limits assumed): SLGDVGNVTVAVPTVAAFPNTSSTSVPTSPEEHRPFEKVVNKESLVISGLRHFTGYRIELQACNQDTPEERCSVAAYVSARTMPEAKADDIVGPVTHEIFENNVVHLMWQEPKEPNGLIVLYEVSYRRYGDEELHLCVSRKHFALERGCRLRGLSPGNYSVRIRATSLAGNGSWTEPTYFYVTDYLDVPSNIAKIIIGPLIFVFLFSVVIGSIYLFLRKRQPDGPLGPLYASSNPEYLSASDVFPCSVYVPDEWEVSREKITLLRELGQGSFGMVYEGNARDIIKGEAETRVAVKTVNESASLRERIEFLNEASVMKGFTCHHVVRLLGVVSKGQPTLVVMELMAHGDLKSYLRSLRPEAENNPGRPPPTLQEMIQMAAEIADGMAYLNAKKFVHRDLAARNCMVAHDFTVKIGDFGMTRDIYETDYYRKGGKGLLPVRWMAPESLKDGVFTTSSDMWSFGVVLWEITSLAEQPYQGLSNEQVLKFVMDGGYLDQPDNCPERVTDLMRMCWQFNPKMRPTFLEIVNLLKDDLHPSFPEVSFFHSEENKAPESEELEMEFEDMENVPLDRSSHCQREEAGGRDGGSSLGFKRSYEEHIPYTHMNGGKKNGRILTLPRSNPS
G protein-coupled receptor kinase 4 (Homo sapiens), sequence (P32298 whole entry, looked up, the tested form may be a part): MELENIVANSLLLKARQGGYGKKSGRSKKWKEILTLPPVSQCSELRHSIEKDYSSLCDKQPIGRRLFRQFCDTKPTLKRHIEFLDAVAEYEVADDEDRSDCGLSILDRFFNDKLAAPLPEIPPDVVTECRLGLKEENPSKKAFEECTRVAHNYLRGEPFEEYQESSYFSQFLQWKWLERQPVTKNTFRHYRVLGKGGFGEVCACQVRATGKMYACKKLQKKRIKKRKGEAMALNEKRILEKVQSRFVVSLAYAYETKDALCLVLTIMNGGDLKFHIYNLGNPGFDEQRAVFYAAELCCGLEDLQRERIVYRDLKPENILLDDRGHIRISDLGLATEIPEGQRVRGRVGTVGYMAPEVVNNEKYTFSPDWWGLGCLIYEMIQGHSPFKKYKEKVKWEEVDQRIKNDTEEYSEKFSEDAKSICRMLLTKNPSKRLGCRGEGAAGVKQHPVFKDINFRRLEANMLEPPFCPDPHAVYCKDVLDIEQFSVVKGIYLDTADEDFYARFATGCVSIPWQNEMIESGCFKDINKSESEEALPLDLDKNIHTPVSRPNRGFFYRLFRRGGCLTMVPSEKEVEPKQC
Cyclin-dependent kinase-like 2 (Homo sapiens), sequence (Q92772 whole entry, the tested form may be a part): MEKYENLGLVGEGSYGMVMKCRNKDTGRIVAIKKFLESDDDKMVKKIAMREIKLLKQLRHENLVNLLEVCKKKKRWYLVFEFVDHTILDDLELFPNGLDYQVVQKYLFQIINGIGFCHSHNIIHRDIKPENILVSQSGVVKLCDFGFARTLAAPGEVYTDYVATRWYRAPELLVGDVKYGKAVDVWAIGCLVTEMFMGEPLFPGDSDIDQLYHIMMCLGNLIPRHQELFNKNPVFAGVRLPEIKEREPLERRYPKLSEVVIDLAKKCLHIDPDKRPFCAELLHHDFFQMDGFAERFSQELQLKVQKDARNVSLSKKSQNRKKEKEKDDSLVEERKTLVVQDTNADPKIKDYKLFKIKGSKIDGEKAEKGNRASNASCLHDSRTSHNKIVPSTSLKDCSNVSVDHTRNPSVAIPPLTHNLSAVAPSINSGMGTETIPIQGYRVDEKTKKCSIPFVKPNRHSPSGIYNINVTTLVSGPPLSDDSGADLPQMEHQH
Serine/threonine-protein kinase 26 (Homo sapiens), sequence (Q9P289 2-416 limits assumed): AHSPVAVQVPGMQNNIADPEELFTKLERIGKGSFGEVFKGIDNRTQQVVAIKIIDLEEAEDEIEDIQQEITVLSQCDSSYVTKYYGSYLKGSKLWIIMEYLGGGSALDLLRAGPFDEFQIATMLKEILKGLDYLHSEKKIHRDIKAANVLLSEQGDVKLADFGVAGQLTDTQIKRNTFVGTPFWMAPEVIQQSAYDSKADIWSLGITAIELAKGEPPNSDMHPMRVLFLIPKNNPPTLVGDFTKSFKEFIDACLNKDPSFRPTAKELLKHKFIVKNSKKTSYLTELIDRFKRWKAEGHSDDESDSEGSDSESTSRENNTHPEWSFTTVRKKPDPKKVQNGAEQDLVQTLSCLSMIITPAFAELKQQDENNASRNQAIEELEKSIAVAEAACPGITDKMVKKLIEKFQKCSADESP
Inhibitor of nuclear factor kappa-B kinase subunit alpha (Homo sapiens), sequence (O15111 whole entry, the tested form may be a part): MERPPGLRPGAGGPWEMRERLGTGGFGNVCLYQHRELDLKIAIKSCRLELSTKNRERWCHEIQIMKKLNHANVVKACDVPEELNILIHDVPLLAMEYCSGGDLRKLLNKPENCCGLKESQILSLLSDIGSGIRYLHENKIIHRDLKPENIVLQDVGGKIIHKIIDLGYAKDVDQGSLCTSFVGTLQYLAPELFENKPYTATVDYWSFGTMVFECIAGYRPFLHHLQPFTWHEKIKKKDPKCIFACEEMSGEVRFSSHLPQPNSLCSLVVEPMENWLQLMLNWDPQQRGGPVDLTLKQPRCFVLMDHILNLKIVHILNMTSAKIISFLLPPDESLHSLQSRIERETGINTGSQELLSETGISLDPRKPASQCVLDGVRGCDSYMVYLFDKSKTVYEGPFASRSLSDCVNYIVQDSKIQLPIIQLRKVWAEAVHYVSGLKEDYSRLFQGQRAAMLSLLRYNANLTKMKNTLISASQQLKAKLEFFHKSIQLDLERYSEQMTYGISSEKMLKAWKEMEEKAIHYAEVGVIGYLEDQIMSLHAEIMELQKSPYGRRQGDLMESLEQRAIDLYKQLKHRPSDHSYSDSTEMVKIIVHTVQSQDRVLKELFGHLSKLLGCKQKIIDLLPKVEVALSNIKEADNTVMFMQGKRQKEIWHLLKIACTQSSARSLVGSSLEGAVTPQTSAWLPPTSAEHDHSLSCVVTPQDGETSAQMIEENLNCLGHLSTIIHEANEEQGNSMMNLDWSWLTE

C=CC(=O)Nc1cc(Nc2cc(-c3cccc(NC(=O)c4ccc(C(C)(C)C)cc4)c3C)cn(C)c2=O)ccc1C(=O)N1CCOCC1 showed an Activity [1] of 86%, an Activity [2] of 94% and an Activity [3] of 97%. For the same compound, the Activity [4] was 100%, the Activity [5] was 81% and the Cmax [6] was 32.8 ng/mL. The Activity [7] was 93%, the AUC(0-inf) [8] was 183 ng·h/mL and the Activity [9] was 94%. The Activity [10] was 100%, the Activity [11] was 100% and the Activity [12] was 91%. For the same compound, the Activity [13] was 94%, the Activity [14] was 80% and the Activity [15] was 100%. For the same compound, the Activity [16] was 91%, the Activity [17] was 91% and the Activity [18] was 96%. The Activity [19] was 100%, the Activity [20] was 97% and the Activity [21] was 100%. It also gave an Activity [22] of 100%, an Activity [23] of 100% and an Activity [24] of 88%. The Activity [25] was 98% and the Activity [26] was 100%.
